Assay results reported in the kinase profiling compilation of Christmann-Franck et al. (2016).

Assays:
Test in all cases: KINOMEscan competition binding
Details in all cases: compound 10.0 µM
PIK3CA (human) = PIK3CA (human) (UniProt P42336)
DDR1 (human) = DDR1 (human) (UniProt Q08345)
KIT (human) = KIT (human) (UniProt P10721)
[1] = system: FLT3 (human), P36888 [K663Q]
[2] = system: EGFR (human), P00533 [L861Q]
[3] = system: EGFR (human), P00533 [746-750 del]
BTK (human) = BTK (human) (UniProt Q06187)
BRAF (human) = BRAF (human) (UniProt P15056)
MYLK3 (human) = MYLK3 (human) (UniProt Q32MK0)
EGFR (human) = EGFR (human) (UniProt P00533)
NIM1 (human) = NIM1 (human) (UniProt Q8IY84)
DYRK1A (human) = DYRK1A (human) (UniProt Q13627)
PRPF4B (human) = PRPF4B (human) (UniProt Q13523)
PI4KB (human) = PI4KB (human) (UniProt Q9UBF8)
MAST1 (human) = MAST1 (human) (UniProt Q9Y2H9)
MAP3K6 (human) = MAP3K6 (human) (UniProt O95382)
STK39 (human) = STK39 (human) (UniProt Q9UEW8)
[4] = system: PIK3CA (human), P42336 [H1047Y]
[5] = system: PIK3CA (human), P42336 [Q546K]
GRK7 (human) = GRK7 (human) (UniProt Q8WTQ7)
MAP3K1 (human) = MAP3K1 (human) (UniProt Q13233)
SIK3 (human) = SIK3 (human) (UniProt Q9Y2K2)
OXSR1 (human) = OXSR1 (human) (UniProt O95747)
SBK1 (human) = SBK1 (human) (UniProt Q52WX2)
HIPK3 (human) = HIPK3 (human) (UniProt Q9H422)
MAP3K2 (human) = MAP3K2 (human) (UniProt Q9Y2U5)
STK38 (human) = STK38 (human) (UniProt Q15208)
[6] = system: PIK3CA (human), P42336 [E545A]

Chain of MAST1 (human) (Q9Y2H9 whole entry, looked up): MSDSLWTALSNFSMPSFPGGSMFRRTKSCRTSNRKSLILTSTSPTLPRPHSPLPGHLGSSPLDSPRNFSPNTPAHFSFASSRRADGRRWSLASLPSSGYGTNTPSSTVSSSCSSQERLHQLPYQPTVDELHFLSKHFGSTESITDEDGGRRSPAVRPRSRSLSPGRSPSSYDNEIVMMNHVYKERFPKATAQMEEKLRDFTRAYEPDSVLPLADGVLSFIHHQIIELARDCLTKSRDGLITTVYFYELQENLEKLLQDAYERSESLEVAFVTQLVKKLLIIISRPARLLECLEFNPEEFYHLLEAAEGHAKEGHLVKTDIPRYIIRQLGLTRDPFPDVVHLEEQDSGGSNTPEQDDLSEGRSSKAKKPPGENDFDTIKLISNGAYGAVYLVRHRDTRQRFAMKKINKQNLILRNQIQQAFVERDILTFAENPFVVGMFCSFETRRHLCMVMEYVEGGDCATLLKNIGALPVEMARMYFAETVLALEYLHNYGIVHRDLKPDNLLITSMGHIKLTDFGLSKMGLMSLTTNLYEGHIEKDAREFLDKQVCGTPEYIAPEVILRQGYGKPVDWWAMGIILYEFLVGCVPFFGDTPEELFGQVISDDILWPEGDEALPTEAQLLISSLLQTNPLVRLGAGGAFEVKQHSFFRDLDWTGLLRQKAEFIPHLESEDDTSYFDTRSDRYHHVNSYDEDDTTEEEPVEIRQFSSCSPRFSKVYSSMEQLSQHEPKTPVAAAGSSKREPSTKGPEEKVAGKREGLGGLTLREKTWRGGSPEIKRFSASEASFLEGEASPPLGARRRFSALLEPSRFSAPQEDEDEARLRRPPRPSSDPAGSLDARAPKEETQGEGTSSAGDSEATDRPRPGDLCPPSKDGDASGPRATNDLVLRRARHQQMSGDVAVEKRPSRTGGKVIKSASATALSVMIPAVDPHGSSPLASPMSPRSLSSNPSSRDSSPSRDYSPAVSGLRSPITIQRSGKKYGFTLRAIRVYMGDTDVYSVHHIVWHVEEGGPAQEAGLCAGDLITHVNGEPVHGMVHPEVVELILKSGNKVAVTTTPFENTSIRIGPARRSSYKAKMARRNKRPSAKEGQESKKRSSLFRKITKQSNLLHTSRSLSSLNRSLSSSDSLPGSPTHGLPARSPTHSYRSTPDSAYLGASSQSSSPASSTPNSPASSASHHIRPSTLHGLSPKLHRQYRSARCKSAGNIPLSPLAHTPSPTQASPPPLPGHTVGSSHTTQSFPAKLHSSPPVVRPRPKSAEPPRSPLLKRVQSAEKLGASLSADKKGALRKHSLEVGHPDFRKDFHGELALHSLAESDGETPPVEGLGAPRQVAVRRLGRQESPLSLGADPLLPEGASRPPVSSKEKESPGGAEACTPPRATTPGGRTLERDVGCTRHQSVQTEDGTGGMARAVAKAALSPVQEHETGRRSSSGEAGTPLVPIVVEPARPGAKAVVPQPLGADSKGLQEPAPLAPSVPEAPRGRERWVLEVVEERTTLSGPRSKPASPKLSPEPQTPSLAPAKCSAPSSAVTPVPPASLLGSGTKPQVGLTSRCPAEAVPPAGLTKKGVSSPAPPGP
Chain of MAP3K1 (human) (Q13233 whole entry, looked up): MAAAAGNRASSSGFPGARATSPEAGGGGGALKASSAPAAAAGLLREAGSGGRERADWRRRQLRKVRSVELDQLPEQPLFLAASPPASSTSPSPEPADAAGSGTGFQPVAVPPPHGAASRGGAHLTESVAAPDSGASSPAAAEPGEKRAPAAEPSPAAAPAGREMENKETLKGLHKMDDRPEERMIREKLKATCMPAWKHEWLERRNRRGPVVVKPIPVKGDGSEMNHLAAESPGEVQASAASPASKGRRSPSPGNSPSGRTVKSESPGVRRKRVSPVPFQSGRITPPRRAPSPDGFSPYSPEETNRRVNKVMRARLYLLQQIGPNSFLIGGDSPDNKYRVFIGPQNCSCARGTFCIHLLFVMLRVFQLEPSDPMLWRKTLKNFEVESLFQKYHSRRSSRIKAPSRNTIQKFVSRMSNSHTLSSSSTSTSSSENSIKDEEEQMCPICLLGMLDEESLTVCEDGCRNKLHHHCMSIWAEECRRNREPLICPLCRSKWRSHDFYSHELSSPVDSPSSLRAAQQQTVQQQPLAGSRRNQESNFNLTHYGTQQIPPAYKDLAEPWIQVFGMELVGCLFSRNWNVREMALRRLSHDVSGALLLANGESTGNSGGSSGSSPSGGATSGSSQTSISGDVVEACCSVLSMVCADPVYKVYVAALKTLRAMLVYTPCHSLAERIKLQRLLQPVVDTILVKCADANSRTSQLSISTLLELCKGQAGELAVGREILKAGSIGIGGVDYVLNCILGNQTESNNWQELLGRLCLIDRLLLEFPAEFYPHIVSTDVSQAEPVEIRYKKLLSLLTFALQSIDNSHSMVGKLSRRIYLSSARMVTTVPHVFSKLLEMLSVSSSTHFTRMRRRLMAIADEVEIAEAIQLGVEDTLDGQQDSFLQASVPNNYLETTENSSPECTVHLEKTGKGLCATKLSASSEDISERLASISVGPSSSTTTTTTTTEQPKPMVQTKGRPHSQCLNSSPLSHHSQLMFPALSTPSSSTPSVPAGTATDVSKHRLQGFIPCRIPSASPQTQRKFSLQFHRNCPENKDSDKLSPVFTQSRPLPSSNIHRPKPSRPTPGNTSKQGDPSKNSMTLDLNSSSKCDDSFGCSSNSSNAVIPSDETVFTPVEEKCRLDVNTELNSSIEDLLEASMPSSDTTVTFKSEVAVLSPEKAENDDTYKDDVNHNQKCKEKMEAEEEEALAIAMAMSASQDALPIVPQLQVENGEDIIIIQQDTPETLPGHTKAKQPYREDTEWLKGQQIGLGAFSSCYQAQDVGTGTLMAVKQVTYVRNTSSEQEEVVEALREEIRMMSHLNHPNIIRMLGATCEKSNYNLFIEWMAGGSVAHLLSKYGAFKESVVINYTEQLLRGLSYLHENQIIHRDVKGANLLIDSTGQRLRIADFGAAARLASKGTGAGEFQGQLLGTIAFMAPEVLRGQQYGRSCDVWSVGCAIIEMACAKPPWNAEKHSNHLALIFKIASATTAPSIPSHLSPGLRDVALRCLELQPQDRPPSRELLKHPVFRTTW
Chain of BRAF (human) (P15056 whole entry, looked up): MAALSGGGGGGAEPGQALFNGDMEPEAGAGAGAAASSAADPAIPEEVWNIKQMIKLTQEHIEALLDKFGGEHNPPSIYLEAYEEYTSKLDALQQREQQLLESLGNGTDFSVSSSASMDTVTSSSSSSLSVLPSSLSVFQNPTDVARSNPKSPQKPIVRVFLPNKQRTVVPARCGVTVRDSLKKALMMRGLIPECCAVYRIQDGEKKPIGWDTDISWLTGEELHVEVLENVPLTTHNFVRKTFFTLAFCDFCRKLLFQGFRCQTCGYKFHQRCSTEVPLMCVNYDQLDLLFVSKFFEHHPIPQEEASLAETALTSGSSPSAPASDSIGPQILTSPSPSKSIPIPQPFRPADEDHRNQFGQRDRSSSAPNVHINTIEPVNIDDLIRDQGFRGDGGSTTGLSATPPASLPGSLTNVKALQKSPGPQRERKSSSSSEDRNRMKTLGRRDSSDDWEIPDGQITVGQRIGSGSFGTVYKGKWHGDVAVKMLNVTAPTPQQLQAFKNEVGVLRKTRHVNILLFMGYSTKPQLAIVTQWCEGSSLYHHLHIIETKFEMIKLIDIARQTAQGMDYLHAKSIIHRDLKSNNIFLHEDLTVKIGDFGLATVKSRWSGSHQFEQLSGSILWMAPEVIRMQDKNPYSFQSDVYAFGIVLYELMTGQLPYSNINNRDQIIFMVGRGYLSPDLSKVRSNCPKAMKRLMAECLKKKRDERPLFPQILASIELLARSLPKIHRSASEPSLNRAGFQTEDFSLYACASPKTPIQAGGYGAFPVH
Chain of DDR1 (human) (Q08345 whole entry, looked up): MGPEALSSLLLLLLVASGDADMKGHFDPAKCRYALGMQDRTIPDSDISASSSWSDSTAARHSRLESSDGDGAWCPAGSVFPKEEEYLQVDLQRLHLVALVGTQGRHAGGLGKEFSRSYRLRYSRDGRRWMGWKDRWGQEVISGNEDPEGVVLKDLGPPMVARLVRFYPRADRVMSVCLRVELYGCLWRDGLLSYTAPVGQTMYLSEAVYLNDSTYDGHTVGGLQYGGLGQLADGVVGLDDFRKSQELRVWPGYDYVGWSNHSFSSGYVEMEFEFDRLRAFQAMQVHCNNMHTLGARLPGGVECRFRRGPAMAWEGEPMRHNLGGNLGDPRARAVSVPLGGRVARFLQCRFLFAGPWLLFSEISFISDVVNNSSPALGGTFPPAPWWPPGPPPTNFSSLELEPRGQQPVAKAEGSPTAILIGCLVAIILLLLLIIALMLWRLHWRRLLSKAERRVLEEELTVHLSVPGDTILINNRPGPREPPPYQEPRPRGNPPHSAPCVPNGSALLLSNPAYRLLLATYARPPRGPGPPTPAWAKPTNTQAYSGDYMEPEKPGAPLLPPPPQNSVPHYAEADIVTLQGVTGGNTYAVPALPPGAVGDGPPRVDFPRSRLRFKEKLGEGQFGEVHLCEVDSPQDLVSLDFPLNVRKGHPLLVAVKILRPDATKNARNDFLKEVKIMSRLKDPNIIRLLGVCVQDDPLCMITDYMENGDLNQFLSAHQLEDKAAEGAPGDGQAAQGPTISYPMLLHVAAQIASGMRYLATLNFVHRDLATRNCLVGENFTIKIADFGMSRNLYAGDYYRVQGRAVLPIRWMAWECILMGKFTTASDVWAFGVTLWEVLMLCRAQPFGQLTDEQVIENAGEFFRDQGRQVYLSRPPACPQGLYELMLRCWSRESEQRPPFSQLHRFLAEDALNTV

C=CC(=O)Nc1cccc(Oc2nc(Nc3ccc(N4CCN(C)CC4)cc3OC)ncc2Cl)c1
kinase still bound, per cent of control (PIK3CA (human)): 100% | kinase still bound, per cent of control (DDR1 (human)): 100% | kinase still bound, per cent of control (KIT (human)): 34% | kinase still bound, per cent of control [1]: 1.1% | kinase still bound, per cent of control [2]: 0.05% | kinase still bound, per cent of control [3]: 0.2% | kinase still bound, per cent of control (BTK (human)): 0.1% | kinase still bound, per cent of control (BRAF (human)): 100% | kinase still bound, per cent of control (MYLK3 (human)): 100% | kinase still bound, per cent of control (EGFR (human)): 0.1%

Cc1ccc(C(=O)Nc2cccc(C(F)(F)F)c2)cc1Nc1cncc(C(N)=O)c1
kinase still bound, per cent of control (PIK3CA (human)): 100% | kinase still bound, per cent of control (DDR1 (human)): 0.1% | kinase still bound, per cent of control (KIT (human)): 0% | kinase still bound, per cent of control [1]: 100% | kinase still bound, per cent of control [2]: 100% | kinase still bound, per cent of control [3]: 100% | kinase still bound, per cent of control (BTK (human)): 100% | kinase still bound, per cent of control (BRAF (human)): 2% | kinase still bound, per cent of control (MYLK3 (human)): 100% | kinase still bound, per cent of control (EGFR (human)): 100%

Cn1c(=O)n(-c2ccc(C(C)(C)C#N)cc2)c2c3cc(-c4cnc5ccccc5c4)ccc3ncc21
kinase still bound, per cent of control (PIK3CA (human)): 2.8% | kinase still bound, per cent of control (NIM1 (human)): 100% | kinase still bound, per cent of control (DYRK1A (human)): 100% | kinase still bound, per cent of control (PRPF4B (human)): 100% | kinase still bound, per cent of control (DDR1 (human)): 100% | kinase still bound, per cent of control (KIT (human)): 100% | kinase still bound, per cent of control (PI4KB (human)): 100% | kinase still bound, per cent of control [1]: 100% | kinase still bound, per cent of control (MAST1 (human)): 100% | kinase still bound, per cent of control (MAP3K6 (human)): 100% | kinase still bound, per cent of control [2]: 100% | kinase still bound, per cent of control [3]: 100% | kinase still bound, per cent of control (STK39 (human)): 100% | kinase still bound, per cent of control [4]: 6.2% | kinase still bound, per cent of control [5]: 3.8% | kinase still bound, per cent of control (GRK7 (human)): 100% | kinase still bound, per cent of control (MAP3K1 (human)): 100% | kinase still bound, per cent of control (SIK3 (human)): 100% | kinase still bound, per cent of control (OXSR1 (human)): 100% | kinase still bound, per cent of control (SBK1 (human)): 100% | kinase still bound, per cent of control (HIPK3 (human)): 100% | kinase still bound, per cent of control (BRAF (human)): 100% | kinase still bound, per cent of control (MYLK3 (human)): 100% | kinase still bound, per cent of control (EGFR (human)): 100% | kinase still bound, per cent of control (MAP3K2 (human)): 100% | kinase still bound, per cent of control (STK38 (human)): 100%

OCCCNc1cc(-c2ccnc(Nc3cccc(Cl)c3)n2)ccn1
kinase still bound, per cent of control (PIK3CA (human)): 100% | kinase still bound, per cent of control (NIM1 (human)): 100% | kinase still bound, per cent of control (DYRK1A (human)): 7.8% | kinase still bound, per cent of control [6]: 100% | kinase still bound, per cent of control (PRPF4B (human)): 100% | kinase still bound, per cent of control (DDR1 (human)): 100% | kinase still bound, per cent of control (KIT (human)): 100% | kinase still bound, per cent of control (PI4KB (human)): 100% | kinase still bound, per cent of control [1]: 100% | kinase still bound, per cent of control (MAST1 (human)): 100% | kinase still bound, per cent of control (MAP3K6 (human)): 100% | kinase still bound, per cent of control [2]: 100% | kinase still bound, per cent of control [3]: 100% | kinase still bound, per cent of control (STK39 (human)): 100% | kinase still bound, per cent of control [4]: 100% | kinase still bound, per cent of control [5]: 100% | kinase still bound, per cent of control (BTK (human)): 100% | kinase still bound, per cent of control (GRK7 (human)): 100% | kinase still bound, per cent of control (MAP3K1 (human)): 100% | kinase still bound, per cent of control (SIK3 (human)): 100% | kinase still bound, per cent of control (OXSR1 (human)): 100% | kinase still bound, per cent of control (SBK1 (human)): 100% | kinase still bound, per cent of control (HIPK3 (human)): 100% | kinase still bound, per cent of control (BRAF (human)): 100% | kinase still bound, per cent of control (MYLK3 (human)): 100% | kinase still bound, per cent of control (EGFR (human)): 100% | kinase still bound, per cent of control (MAP3K2 (human)): 100% | kinase still bound, per cent of control (STK38 (human)): 100%

CC[C@@H]1C(=O)N(C)c2cnc(Nc3ccc(C(=O)NC4CCN(C)CC4)cc3OC)nc2N1C1CCCC1
kinase still bound, per cent of control (PIK3CA (human)): 100% | kinase still bound, per cent of control (DDR1 (human)): 100% | kinase still bound, per cent of control (KIT (human)): 100% | kinase still bound, per cent of control [1]: 100% | kinase still bound, per cent of control (BRAF (human)): 100%

COc1cc(C(=O)NC2CCN(C)CC2)ccc1Nc1ncc2c(n1)N(C1CCCC1)C(C)CC(=O)N2C (stereo not given)
kinase still bound, per cent of control (PIK3CA (human)): 100% | kinase still bound, per cent of control (DDR1 (human)): 100% | kinase still bound, per cent of control (KIT (human)): 100% | kinase still bound, per cent of control [1]: 100% | kinase still bound, per cent of control [2]: 100% | kinase still bound, per cent of control [3]: 100% | kinase still bound, per cent of control (BTK (human)): 100% | kinase still bound, per cent of control (MYLK3 (human)): 100% | kinase still bound, per cent of control (EGFR (human)): 100%

COc1cc(C(=O)NC2CCN(C)CC2)ccc1Nc1ncc2c(n1)N(C1CCCC1)CCC(=O)N2C(C)C
kinase still bound, per cent of control (PIK3CA (human)): 100% | kinase still bound, per cent of control (NIM1 (human)): 100% | kinase still bound, per cent of control (DYRK1A (human)): 100% | kinase still bound, per cent of control [6]: 100% | kinase still bound, per cent of control (PRPF4B (human)): 100% | kinase still bound, per cent of control (DDR1 (human)): 100% | kinase still bound, per cent of control (KIT (human)): 100% | kinase still bound, per cent of control (PI4KB (human)): 100% | kinase still bound, per cent of control [1]: 100% | kinase still bound, per cent of control (MAST1 (human)): 100% | kinase still bound, per cent of control (MAP3K6 (human)): 100% | kinase still bound, per cent of control [2]: 100% | kinase still bound, per cent of control [3]: 100% | kinase still bound, per cent of control (STK39 (human)): 100% | kinase still bound, per cent of control [4]: 100% | kinase still bound, per cent of control [5]: 100% | kinase still bound, per cent of control (BTK (human)): 100% | kinase still bound, per cent of control (GRK7 (human)): 100% | kinase still bound, per cent of control (MAP3K1 (human)): 100% | kinase still bound, per cent of control (SIK3 (human)): 100% | kinase still bound, per cent of control (OXSR1 (human)): 100% | kinase still bound, per cent of control (SBK1 (human)): 100% | kinase still bound, per cent of control (HIPK3 (human)): 100% | kinase still bound, per cent of control (MYLK3 (human)): 100% | kinase still bound, per cent of control (EGFR (human)): 100% | kinase still bound, per cent of control (MAP3K2 (human)): 100% | kinase still bound, per cent of control (STK38 (human)): 100%
